Values belong to the compound of their own block, whether it stands above or below them.
Test system: 485176-168-R4-J1-PDC complex spheroid growth
Assay: Anticancer human tumor 485176-168-R4-J1-PDC patient-derived pancreatic adenocarcinoma cell line growth inhibition [RAS]
Conditions: for IC50: curve of first compound; for viability, T/C: stronger effect = lower value
In short: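 Agents were tested in combination matrices in half-log decrements from a top concentration at or near clinical Cmax (10 microM if undetermined). Targets were multi-cell spheroids of tumour lines plus HUVEC and MSC stromal cells.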
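Further: spheroids exposed to compounds for seven days before readout.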
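Wherever viability, T/C is given: luminescence viability expressed relative to DMSO vehicle wells set as 100%.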

IC50 (second compound 0.000949 µM): 13.9 nM
IC50 (second compound 0.003 µM): 12.4 nM
IC50 (second compound 0.00949 µM): 11.6 nM
IC50 (second compound 0.03 µM): 11.2 nM
IC50 (second compound 0.0949 µM): 10.3 nM
IC50 (second compound 0.3 µM): 7.16 nM
Structure (SMILES): CCc1c2c(nc3ccc(O)cc13)-c1cc3c(c(=O)n1C2)COC(=O)[C@]3(O)CC + CCn1c(-c2cc(N3CCN(C)CC3)cnc2C(C)OC)c2c3cc(ccc31)-c1csc(n1)CC(NC(=O)C1CC1C)C(=O)N1CCCC(N1)C(=O)OCC(C)(C)C2
viability, T/C (second compound 0.000949 µM, first compound 0.000949 µM): 104%
viability, T/C (second compound 0.000949 µM, first compound 0.003 µM): 77.5%
viability, T/C (second compound 0.000949 µM, first compound 0.00949 µM): 64.3%
viability, T/C (second compound 0.000949 µM, first compound 0.03 µM): 30.8%
viability, T/C (second compound 0.000949 µM, first compound 0.0949 µM): 16.6%
viability, T/C (second compound 0.000949 µM, first compound 0.3 µM): 9.25%
viability, T/C (second compound 0.003 µM, first compound 0.000949 µM): 95%
viability, T/C (second compound 0.003 µM, first compound 0.003 µM): 86%
viability, T/C (second compound 0.003 µM, first compound 0.00949 µM): 55.6%
viability, T/C (second compound 0.003 µM, first compound 0.03 µM): 27.8%
viability, T/C (second compound 0.003 µM, first compound 0.0949 µM): 16.1%
viability, T/C (second compound 0.003 µM, first compound 0.3 µM): 9.83%
viability, T/C (second compound 0.00949 µM, first compound 0.000949 µM): 81.2%
viability, T/C (second compound 0.00949 µM, first compound 0.003 µM): 77.8%
viability, T/C (second compound 0.00949 µM, first compound 0.00949 µM): 50.3%
viability, T/C (second compound 0.00949 µM, first compound 0.03 µM): 32.4%
viability, T/C (second compound 0.00949 µM, first compound 0.0949 µM): 16.2%
viability, T/C (second compound 0.00949 µM, first compound 0.3 µM): 7.59%
viability, T/C (second compound 0.03 µM, first compound 0.000949 µM): 70.7%
viability, T/C (second compound 0.03 µM, first compound 0.003 µM): 72.3%
viability, T/C (second compound 0.03 µM, first compound 0.00949 µM): 52.3%
viability, T/C (second compound 0.03 µM, first compound 0.03 µM): 28.3%
viability, T/C (second compound 0.03 µM, first compound 0.0949 µM): 15.9%
viability, T/C (second compound 0.03 µM, first compound 0.3 µM): 12%
viability, T/C (second compound 0.0949 µM, first compound 0.000949 µM): 70.1%
viability, T/C (second compound 0.0949 µM, first compound 0.003 µM): 76.8%
viability, T/C (second compound 0.0949 µM, first compound 0.00949 µM): 45.2%
viability, T/C (second compound 0.0949 µM, first compound 0.03 µM): 32.5%
viability, T/C (second compound 0.0949 µM, first compound 0.0949 µM): 17%
viability, T/C (second compound 0.0949 µM, first compound 0.3 µM): 9.84%
viability, T/C (second compound 0.3 µM, first compound 0.000949 µM): 78.3%
viability, T/C (second compound 0.3 µM, first compound 0.003 µM): 62.1%
viability, T/C (second compound 0.3 µM, first compound 0.00949 µM): 47.3%
viability, T/C (second compound 0.3 µM, first compound 0.03 µM): 27.6%
viability, T/C (second compound 0.3 µM, first compound 0.0949 µM): 15.2%
viability, T/C (second compound 0.3 µM, first compound 0.3 µM): 6.04%

IC50 (second compound 0.000949 µM): > 1000 nM
IC50 (second compound 0.003 µM): > 1000 nM
IC50 (second compound 0.00949 µM): > 1000 nM
IC50 (second compound 0.03 µM): > 1000 nM
IC50 (second compound 0.0949 µM): > 1000 nM
IC50 (second compound 0.3 µM): > 1000 nM
Structure (SMILES): C=CC(=O)Nc1cc(Nc2nccc(-c3cn(C)c4ccccc34)n2)c(OC)cc1N(C)CCN(C)C + CCn1c(-c2cccnc2C(C)OC)c2c3cc(ccc31)N1CCOC(CC(NC(=O)C(C(C)C)N(C)C(=O)C3(F)CCN(C(=O)C#CC(C)(C)N(C)C)CC3)C(=O)N3CCCC(N3)C(=O)OCC(C)(C)C2)C1
viability, T/C (second compound 0.000949 µM, first compound 0.00316 µM): 114%
viability, T/C (second compound 0.000949 µM, first compound 0.01 µM): 109%
viability, T/C (second compound 0.000949 µM, first compound 0.0316 µM): 102%
viability, T/C (second compound 0.000949 µM, first compound 0.1 µM): 97.6%
viability, T/C (second compound 0.000949 µM, first compound 0.316 µM): 84.5%
viability, T/C (second compound 0.000949 µM, first compound 1 µM): 72%
viability, T/C (second compound 0.003 µM, first compound 0.00316 µM): 98.2%
viability, T/C (second compound 0.003 µM, first compound 0.01 µM): 105%
viability, T/C (second compound 0.003 µM, first compound 0.0316 µM): 90.3%
viability, T/C (second compound 0.003 µM, first compound 0.1 µM): 85.6%
viability, T/C (second compound 0.003 µM, first compound 0.316 µM): 99.1%
viability, T/C (second compound 0.003 µM, first compound 1 µM): 61.4%
viability, T/C (second compound 0.00949 µM, first compound 0.00316 µM): 104%
viability, T/C (second compound 0.00949 µM, first compound 0.01 µM): 109%
viability, T/C (second compound 0.00949 µM, first compound 0.0316 µM): 102%
viability, T/C (second compound 0.00949 µM, first compound 0.1 µM): 88.2%
viability, T/C (second compound 0.00949 µM, first compound 0.316 µM): 80.8%
viability, T/C (second compound 0.00949 µM, first compound 1 µM): 69%
viability, T/C (second compound 0.03 µM, first compound 0.00316 µM): 86.8%
viability, T/C (second compound 0.03 µM, first compound 0.01 µM): 113%
viability, T/C (second compound 0.03 µM, first compound 0.0316 µM): 114%
viability, T/C (second compound 0.03 µM, first compound 0.1 µM): 102%
viability, T/C (second compound 0.03 µM, first compound 0.316 µM): 89.9%
viability, T/C (second compound 0.03 µM, first compound 1 µM): 58.7%
viability, T/C (second compound 0.0949 µM, first compound 0.00316 µM): 81.6%
viability, T/C (second compound 0.0949 µM, first compound 0.01 µM): 77.9%
viability, T/C (second compound 0.0949 µM, first compound 0.0316 µM): 81.6%
viability, T/C (second compound 0.0949 µM, first compound 0.1 µM): 96.5%
viability, T/C (second compound 0.0949 µM, first compound 0.316 µM): 92.3%
viability, T/C (second compound 0.0949 µM, first compound 1 µM): 57.1%
viability, T/C (second compound 0.3 µM, first compound 0.00316 µM): 87.6%
viability, T/C (second compound 0.3 µM, first compound 0.01 µM): 93%
viability, T/C (second compound 0.3 µM, first compound 0.0316 µM): 82.7%
viability, T/C (second compound 0.3 µM, first compound 0.1 µM): 93.1%
viability, T/C (second compound 0.3 µM, first compound 0.316 µM): 78.3%
viability, T/C (second compound 0.3 µM, first compound 1 µM): 65.9%
